Where two headings read alike, the source gives them in different places.
Columns and labels:
EGFR^WT = EGFR^WT (Homo sapiens, UniProt P00533); assay: In vitro EGFR enzyme inhibitory assay; format: biochemical
Description: (§5) The assays were conducted in Vacsera (Giza, Egypt). Curve fitting was performed using GraphPad Prism. Data are represented as means ± SD from three independent experiments.
Reader : Tecan Spark Reader

Topo-II = biological target: T1, Topo-II (Homo sapiens, UniProt Q02880); assay: In vitro Topo II inhibitory assay; format: biochemical
T1 construct: purchased
Description: (§1) Curve fitting was performed using GraphPad Prism.
(§2) (1 picture or pasted object on this page, not shown here)

MCF-7 = assay: MTT cytotoxicity assay, MCF-7; format: cell-based; settings: Homo sapiens, MCF7
Description: (§6) The cytotoxic activity was assessed using the 3-(4,5-dimethylthiazol-2-yl)-2,5-diphenyl tetrazolium bromide (MTT) colorimetric assay, as reported previously [62, 63]. […] Briefly, the designated cell lines were cultured at a concentration of 5 × 10^4 cell/well in 96-well plates. The cells were incubated for 24 h under optimum conditions. Following this, the designated molecules were introduced (in serial dilutions from 0 to 50 μg/mL), and the cells were incubated for an additional 24 h. Following this, the media were withdrawn, and 100 μL of fresh medium was added. Then, 10 µL of the 12 mM MTT stock solution was administered to each well. The plates were then incubated for 4 h. Then, the cells were exposed to different compounds at the desired concentrations (0.01, 0.1, 1, 10, and 100 µM) or to 1% dimethyl sulfoxide (DMSO) for 48 and 72 h. […] Then, the optical density was measured at 590 nm with the microplate reader (Sunrise, TECAN, Inc., Morrisville, NC, USA).

VEGFR-2 = VEGFR-2 (Homo sapiens, UniProt P35968); assay: In vitro VEGFR2 enzyme inhibitory assay; format: biochemical
Description: as §1, §2

[1] = tested on: MCF-7, HCT116, and HePG-2; assay: MTT assay against three malignant cell lines (summary); format: cell-based; settings: Homo sapiens, read-out: IC50 cytotoxicity (range over cell lines)
Description: (§3) According to our design, the tested compounds are classified into four categories based on the length and the chemotype of the spacer (Figure 3). In the first category, we used monosubstituted hydrazone linker. […] The second category is represented by […] hydrazone linker.
(§4) The cytotoxic activity was assessed using the 3-(4,5-dimethylthiazol-2-yl)-2,5-diphenyl tetrazolium bromide (MTT) colorimetric assay, as reported previously. Doxorubicin was used as a reference standard, and DMSO was used as a negative control. Briefly, the designated cell lines were cultured at a concentration of 5 × 10^4 cell/well in 96-well plates. The cells were incubated for 24 h under optimum conditions. Following this, the designated molecules were introduced (in serial dilutions from 0 to 50 μg/mL), and the cells were incubated for an additional 24 h. Following this, the media were withdrawn, and 100 μL of fresh medium was added. Then, 10 µL of the 12 mM MTT stock solution was administered to each well. The plates were then incubated for 4 h. […] An 85-μL aliquot of the media was removed from the wells, and 50 µL of DMSO was added to each well and mixed thoroughly with the pipette and incubated at 37 °C for 10 min. Then, the optical density was measured at 590 nm with the microplate reader (Sunrise, TECAN, Inc., Morrisville, NC, USA).

HCT-116 = assay: MTT cytotoxicity assay, HCT-116; format: cell-based; settings: Homo sapiens
Description: as §6

EGFR^T790M = EGFR^T790M (Homo sapiens, UniProt P00533, T790M); assay: In vitro EGFR T790M kinase inhibitory assay
Description: as §5
Assay : EGFR-T490M kinase assay
Reader : Tecan-spark reader
Kit used : BPS bioscience EGFR assay kit.

WI-38 = assay: MTT assay on normal cell line WI-38; format: cell-based; settings: normal human diploid fibroblasts
Description: as §3, §4

HePG-2 = assay: MTT cytotoxicity assay, HePG-2; format: cell-based; settings: Homo sapiens, HepG2
Description: as §4

T1 sequence (Q02880 2-1626): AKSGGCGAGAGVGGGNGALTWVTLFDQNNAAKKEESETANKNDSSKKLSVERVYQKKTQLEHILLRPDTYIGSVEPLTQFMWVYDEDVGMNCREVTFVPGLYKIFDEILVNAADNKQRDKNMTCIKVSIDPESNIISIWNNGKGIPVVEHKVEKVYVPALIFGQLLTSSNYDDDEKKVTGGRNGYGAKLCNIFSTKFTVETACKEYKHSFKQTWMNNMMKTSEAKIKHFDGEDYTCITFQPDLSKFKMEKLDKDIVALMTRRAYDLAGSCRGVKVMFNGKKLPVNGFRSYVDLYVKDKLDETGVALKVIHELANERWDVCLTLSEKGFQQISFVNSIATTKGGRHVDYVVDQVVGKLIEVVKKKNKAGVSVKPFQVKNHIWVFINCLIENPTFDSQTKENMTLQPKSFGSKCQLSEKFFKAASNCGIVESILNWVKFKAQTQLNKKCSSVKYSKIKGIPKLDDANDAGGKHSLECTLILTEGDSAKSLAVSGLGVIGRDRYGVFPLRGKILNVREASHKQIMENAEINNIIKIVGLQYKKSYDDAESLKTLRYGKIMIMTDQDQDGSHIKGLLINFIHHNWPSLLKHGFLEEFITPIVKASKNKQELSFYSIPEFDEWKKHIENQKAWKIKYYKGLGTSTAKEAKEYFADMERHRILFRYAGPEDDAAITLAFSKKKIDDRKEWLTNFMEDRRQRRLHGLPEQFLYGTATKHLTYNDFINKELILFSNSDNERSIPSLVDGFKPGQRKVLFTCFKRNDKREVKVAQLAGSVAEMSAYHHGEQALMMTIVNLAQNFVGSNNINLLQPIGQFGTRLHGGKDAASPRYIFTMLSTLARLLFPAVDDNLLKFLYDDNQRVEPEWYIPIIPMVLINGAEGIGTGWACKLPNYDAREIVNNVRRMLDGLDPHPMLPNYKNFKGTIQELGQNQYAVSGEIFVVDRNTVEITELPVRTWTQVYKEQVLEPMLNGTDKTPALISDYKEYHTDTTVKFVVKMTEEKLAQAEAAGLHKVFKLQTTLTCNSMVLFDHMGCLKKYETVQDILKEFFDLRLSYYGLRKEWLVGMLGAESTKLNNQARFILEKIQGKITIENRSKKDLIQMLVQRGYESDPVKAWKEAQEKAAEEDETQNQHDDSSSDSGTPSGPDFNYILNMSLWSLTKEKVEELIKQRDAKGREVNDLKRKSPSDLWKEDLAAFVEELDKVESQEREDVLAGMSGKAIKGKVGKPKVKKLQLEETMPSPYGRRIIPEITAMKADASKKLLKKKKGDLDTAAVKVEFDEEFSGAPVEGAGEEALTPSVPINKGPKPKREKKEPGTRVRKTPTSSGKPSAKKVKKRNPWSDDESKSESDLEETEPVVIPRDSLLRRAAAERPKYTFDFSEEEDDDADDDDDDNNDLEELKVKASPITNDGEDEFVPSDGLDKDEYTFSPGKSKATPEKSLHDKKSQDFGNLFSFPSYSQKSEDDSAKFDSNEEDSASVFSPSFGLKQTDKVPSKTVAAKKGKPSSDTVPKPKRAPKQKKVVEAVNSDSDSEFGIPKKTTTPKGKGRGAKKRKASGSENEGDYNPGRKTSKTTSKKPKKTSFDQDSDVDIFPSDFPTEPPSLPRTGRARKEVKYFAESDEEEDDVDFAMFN
Chain of EGFR^T790M (P00533 25-1210 T790M): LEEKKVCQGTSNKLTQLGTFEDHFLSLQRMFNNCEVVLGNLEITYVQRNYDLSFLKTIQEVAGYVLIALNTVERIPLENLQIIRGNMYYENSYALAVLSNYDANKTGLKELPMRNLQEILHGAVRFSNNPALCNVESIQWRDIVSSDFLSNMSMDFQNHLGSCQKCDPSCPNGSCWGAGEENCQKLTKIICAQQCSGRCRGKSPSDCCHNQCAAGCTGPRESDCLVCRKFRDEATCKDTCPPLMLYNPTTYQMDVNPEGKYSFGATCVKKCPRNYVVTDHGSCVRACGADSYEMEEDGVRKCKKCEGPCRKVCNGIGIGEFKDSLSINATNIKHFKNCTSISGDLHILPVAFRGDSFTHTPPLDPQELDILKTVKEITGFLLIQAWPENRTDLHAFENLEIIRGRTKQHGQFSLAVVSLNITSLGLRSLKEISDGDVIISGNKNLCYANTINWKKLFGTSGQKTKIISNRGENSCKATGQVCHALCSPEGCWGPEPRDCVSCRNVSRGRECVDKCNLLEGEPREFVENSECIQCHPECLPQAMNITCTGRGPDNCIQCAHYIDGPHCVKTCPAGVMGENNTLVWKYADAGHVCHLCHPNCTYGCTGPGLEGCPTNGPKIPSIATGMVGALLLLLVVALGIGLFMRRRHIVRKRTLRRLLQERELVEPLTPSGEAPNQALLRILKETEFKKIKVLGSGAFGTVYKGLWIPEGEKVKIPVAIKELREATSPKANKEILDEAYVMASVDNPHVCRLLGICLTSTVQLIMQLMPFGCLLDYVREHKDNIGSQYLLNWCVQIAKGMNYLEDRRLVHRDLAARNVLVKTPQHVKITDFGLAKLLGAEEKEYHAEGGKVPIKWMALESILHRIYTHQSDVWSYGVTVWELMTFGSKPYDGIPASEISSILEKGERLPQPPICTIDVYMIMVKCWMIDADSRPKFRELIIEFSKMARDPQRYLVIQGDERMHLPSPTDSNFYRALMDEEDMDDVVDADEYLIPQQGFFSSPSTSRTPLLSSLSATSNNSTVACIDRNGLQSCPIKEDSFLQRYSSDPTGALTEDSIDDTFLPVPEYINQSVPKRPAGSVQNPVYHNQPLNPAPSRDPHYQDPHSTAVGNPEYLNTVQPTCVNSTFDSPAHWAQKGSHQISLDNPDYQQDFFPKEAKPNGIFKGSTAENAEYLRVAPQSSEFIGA
Chain of EGFR^WT (P00533 25-1210): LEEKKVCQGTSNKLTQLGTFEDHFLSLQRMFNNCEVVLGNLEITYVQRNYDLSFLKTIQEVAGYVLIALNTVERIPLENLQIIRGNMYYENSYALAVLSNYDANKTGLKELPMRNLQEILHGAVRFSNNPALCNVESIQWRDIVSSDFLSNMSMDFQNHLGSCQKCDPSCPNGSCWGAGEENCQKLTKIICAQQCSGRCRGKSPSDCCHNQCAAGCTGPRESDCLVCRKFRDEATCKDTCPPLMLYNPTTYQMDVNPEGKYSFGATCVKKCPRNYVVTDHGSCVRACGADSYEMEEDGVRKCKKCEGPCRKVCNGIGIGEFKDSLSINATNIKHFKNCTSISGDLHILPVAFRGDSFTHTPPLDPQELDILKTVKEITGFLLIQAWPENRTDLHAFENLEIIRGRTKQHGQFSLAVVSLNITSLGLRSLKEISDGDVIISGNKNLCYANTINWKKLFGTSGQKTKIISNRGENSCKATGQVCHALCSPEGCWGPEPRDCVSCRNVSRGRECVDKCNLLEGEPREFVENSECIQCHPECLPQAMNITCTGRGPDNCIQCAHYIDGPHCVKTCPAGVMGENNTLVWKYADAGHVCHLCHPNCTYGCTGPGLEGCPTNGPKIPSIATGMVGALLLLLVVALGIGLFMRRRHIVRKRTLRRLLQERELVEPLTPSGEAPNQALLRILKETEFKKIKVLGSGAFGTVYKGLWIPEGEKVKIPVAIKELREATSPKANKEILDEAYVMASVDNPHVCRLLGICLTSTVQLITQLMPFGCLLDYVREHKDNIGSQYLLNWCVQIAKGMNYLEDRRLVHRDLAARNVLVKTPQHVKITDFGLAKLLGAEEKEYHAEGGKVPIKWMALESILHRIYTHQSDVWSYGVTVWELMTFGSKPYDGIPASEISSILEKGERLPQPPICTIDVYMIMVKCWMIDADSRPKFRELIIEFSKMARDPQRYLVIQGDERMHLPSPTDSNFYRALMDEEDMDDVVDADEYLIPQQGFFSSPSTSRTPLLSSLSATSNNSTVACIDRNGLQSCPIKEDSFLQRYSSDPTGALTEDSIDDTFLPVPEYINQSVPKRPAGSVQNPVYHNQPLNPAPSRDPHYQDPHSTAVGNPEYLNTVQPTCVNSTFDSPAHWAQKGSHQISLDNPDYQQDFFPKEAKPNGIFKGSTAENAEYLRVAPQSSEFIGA

Compound: Cc1nc(NN=Cc2ccc(O)cc2)c2cnn(-c3ccccc3)c2n1 [Compound 5b, 4-((2-(6-Methyl-1-phenyl-1H-pyrazolo[3,4-d]pyrimidin-4-yl)hydrazineylidene)methyl)phenol]
- EGFR %inh at conc 0.01 (EGFR^WT; conc 0.01, unit not given): 28%
- EGFR %inh at conc 0.1 (EGFR^WT; conc 0.1, unit not given): 46%
- EGFR %inh at conc 1 (EGFR^WT; conc 1, unit not given): 71%
- EGFR %inh at conc 10 (EGFR^WT; conc 10, unit not given): 87%
- IC50 (EGFR^WT; supplement lab report, read-out: EGFR IC50 (lab report) (converted)): 0.366 µM
- TOPO IiB %inh at conc 0.1 (Topo-II; conc 0.1, unit not given): 6.7%
- TOPO IiB %inh at conc 1 (Topo-II; conc 1, unit not given): 12%
- TOPO IiB %inh at conc 10 (Topo-II; conc 10, unit not given): 31%
- TOPO IiB %inh at conc 100 (Topo-II; conc 100, unit not given): 66%
- IC50 (Topo-II; read-out: IC50 Topo-II): 108 ± 2.2 µM
- IC50 (Topo-II; supplement lab report, Human DNA Topoisomerase 2B Kit, read-out: TOP2a IC50 (lab report) (converted)): 108 µM
- IC50 (MCF-7; 24 h incubation, read-out: IC50 MCF-7 24 h): 10.5 ± 0.7 µM
- IC50 (MCF-7; 48 h incubation, read-out: IC50 MCF-7 48 h): 9.82 ± 0.9 µM
- IC50 (MCF-7; 72 h incubation, read-out: IC50 MCF-7 72 h): 5.16 ± 0.4 µM
- IC50 (MCF-7; MTT, breast cancer cells, read-out: IC50 MCF-7): 10.5 ± 0.7 µM
- VEGFR2 %inh at conc 0.01 (VEGFR-2; conc 0.01, unit not given): 13%
- VEGFR2 %inh at conc 0.1 (VEGFR-2; conc 0.1, unit not given): 25%
- VEGFR2 %inh at conc 1 (VEGFR-2; conc 1, unit not given): 50%
- VEGFR2 %inh at conc 10 (VEGFR-2; conc 10, unit not given): 70%
- target selectivity index EGFR over VGFR-2 (VEGFR-2; fold, EGFR^WT versus VGFR-2): 20
- IC50 (VEGFR-2; read-out: IC50 VGFR2): 15.7 ± 0.32 µM
- IC50 (VEGFR-2; supplement lab report, read-out: VEGFR2 IC50 (lab report) (converted)): 15.7 µM
- IC50 [1]: 3 to 10 µM
- IC50 (HCT-116; HCT-116, read-out: IC50 HCT-116, MTT, colon cancer cells): 5.65 ± 0.3 µM
- IC50 (HCT-116; HCT-116, 24 h incubation, read-out: IC50 HCT116 24 h): 5.65 ± 0.3 µM
- IC50 (HCT-116; HCT-116, 48 h incubation, read-out: IC50 HCT116 48 h): 9.82 ± 0.9 µM
- IC50 (HCT-116; HCT-116, 72 h incubation, read-out: IC50 HCT116 72 h): 4.09 ± 0.3 µM
- IC50 (EGFR^T790M): 1.93 ± 0.08 µM
- EGFR T790M %inh at conc 0.01 (EGFR^T790M; conc 0.01 (conc.ng/ml)): 37%
- EGFR T790M %inh at conc 0.1 (EGFR^T790M; conc 0.1 (conc.ng/ml)): 54%
- EGFR T790M %inh at conc 1 (EGFR^T790M; conc 1 (conc.ng/ml)): 77%
- EGFR T790M %inh at conc 10 (EGFR^T790M; conc 10 (conc.ng/ml)): 87%
- IC50 (WI-38; Homo sapiens, WI-38, MTT): > 35 µM
- IC50 (WI-38; MTT): 35 ± 0.3 µM
- IC50 (HePG-2; 24 h incubation, read-out: IC50 HePG-2 24 h): 9.12 ± 0.7 µM
- IC50 (HePG-2; 48 h incubation, read-out: IC50 HePG-2 48 h): 7.6 ± 0.7 µM
- IC50 (HePG-2; 72 h incubation, read-out: IC50 HePG-2 72 h): 5.16 ± 0.4 µM
- IC50 (HePG-2; MTT, liver cancer cells, read-out: IC50 HePG-2): 9.12 ± 0.7 µM
- melting point: 162 to 164 °C

— article PMC10573254, “Development of Novel Class of Phenylpyrazolo[3,4-d]pyrimidine-Based Analogs with Potent Anticancer Activity and Multitarget Enzyme Inhibition Supported by Docking Studies” (International Journal of Molecular Sciences, 2023)
